This note sets out measurements from PubChem BioAssay (NCI).

Values joined by “and” are separate entries in the source; they are usually repeats but may differ in a detail not shown here. Equal entries are not always repeated.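 In this assay, cells in 96-well plates receive the compound at five concentrations for 48 hours. Endpoints are linearly interpolated between the surrounding concentrations. GI50: concentration for 50% inhibition of growth. Definition used: TGI = concentration required for complete inhibition of growth.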

Common to all, as to assay: NCI-60 cell line screen, 48 h
The subject of assay [1] is SK-OV-3 ovarian.
Assay [2] deals with K-562 leukemia.
Assay [3] concerns NCI/ADR-RES ovarian.
In assay [4] the test system is SW-620 colon.
Assay [5] has as its system HCT-116 colon.
Assay [6] relates to M14 melanoma.
The test system of assay [7] is CCRF-CEM leukemia.
The test system of assay [8] is PC-3 prostate.
The test system of assay [9] is RPMI-8226 leukemia.
Assay [10] relates to SK-MEL-5 melanoma.

Regarding `O=C(Nc1ncc(Cc2ccc(Cl)cc2)s1)c1ccc2c(c1)OCCO2`, the GI50 was 0.183 µM in [1]; 0.0453 µM in assay [2]; 0.0393 µM in [3]; 0.04 µM in assay [4]; 0.0419 µM in assay [5]; 0.0409 µM in assay [6]. The GI50 in assay [7] was 0.0639 µM; in [8] it was 0.047 µM; in [9], 0.0526 µM; in [10], 0.0539 µM. Further, the TGI is 92.9 µM in [1]; > 100 µM in assay [2]; 5.58 µM in assay [3]; > 100 µM in assay [4]; > 100 µM in assay [5]; 75.3 µM in assay [6]. The TGI in assay [7] was > 100 µM; in [8] it was > 100 µM; in assay [9], > 100 µM; in assay [10], 1.42 µM.
As for `OCCCNC(=S)Nc1ccc(-c2nc3ccccc3s2)cc1`, the GI50 is 63.7 µM in assay [1]; 29.7 µM in assay [2]; 25.2 µM in assay [3]; 47.7 µM in assay [4]; 19.9 µM in assay [5]; 23.3 µM in assay [6]. The GI50 was 16.9 µM in assay [7], 27.7 µM in assay [8], 26.5 µM in assay [9] and 20.9 µM in assay [10]. In addition, the TGI in assay [1] was > 100 µM; in [2] it was > 100 µM; in assay [3], 66.6 µM; in assay [4], > 100 µM; in [5] it was 46.2 µM; in assay [6], 49 µM. Moreover, the TGI in assay [7] was > 100 µM; in [8] it was > 100 µM; in [9], > 100 µM; in [10] it was 47.1 µM.
For the compound `COc1cc([C@@H]2c3cc4c(cc3[C@H](O)[C@H]3COC(=O)[C@@H]23)OCO4)cc(OC)c1OC`, the GI50 in [1] is 0.529 µM and 0.301 µM; in assay [2], 0.349 µM and 0.405 µM; in assay [3] it was 0.884 µM and 0.194 µM; in assay [4], 0.409 µM and 0.219 µM; in assay [5], 0.406 µM and 0.185 µM; in [6], 0.355 µM and 0.135 µM. Further, the GI50 in assay [7] was 0.374 µM and 0.302 µM; in assay [8], 0.362 µM and 0.51 µM; in assay [9], 0.566 µM and 0.3 µM; in assay [10] it was 0.351 µM and 0.0355 µM. The TGI in assay [2] is > 100 µM; in [3] it was > 10 µM; in [4], > 100 µM; in assay [5], > 10 µM; in assay [6] it was > 100 µM; in [7], > 100 µM. The TGI in [8] was > 100 µM; in assay [9], > 10 µM and 1.37 µM; in [10] it was 1.8 µM and 0.254 µM.
For the compound `C#CCOc1c(OC)cc(C(=O)/C(C)=C/c2cccc(N=[N+]=[N-])c2)cc1OC`, the GI50 was 0.674 µM in [1]; 0.0383 µM in assay [2]; 0.119 µM in [3]; 0.0503 µM in [4]; 0.0468 µM in [5]; 0.178 µM in assay [6]. The GI50 in assay [7] is 0.117 µM; in [8], 0.132 µM; in assay [9] it was 0.255 µM; in assay [10] it was 0.288 µM. Further, the TGI in assay [1] is > 100 µM; in assay [2] it was > 100 µM; in assay [3], > 100 µM; in [4] it was > 100 µM; in [5], 10.8 µM; in assay [6] it was > 100 µM. For the same compound, the TGI was > 100 µM in [7], > 100 µM in assay [8], > 100 µM in assay [9] and 54.3 µM in assay [10].
Take `CC(=O)O[C@@H]1CC(=O)O[C@@H]2C[C@@H](CC/C(Cl)=C/C/C=C\1C)O[C@@H]2CO`: the GI50 in assay [1], in assay [2], in assay [3], in assay [4], in assay [5] and in [6] was > 25 µM each time. Further, the GI50 in assay [8], in [9] and in assay [10] was > 25 µM in each case. The TGI in assay [1], in assay [2], in [3], in [4], in [5] and in [6] was > 25 µM in each case. Further, the TGI in assay [8], in assay [9] and in assay [10] was > 25 µM in each case.
Consider `COc1cc2c(/C=C3/C(=O)Nc4c3ccc3ccccc43)c(Cl)[nH]c2cc1C`, for which the GI50 is 0.0364 µM in assay [1]; < 0.005 µM in assay [2]; 0.0139 µM in assay [3]; 0.0781 µM in [4]; 0.0078 µM in assay [5]; 0.0119 µM in assay [6]. For the same compound, the GI50 in assay [8] is 0.0152 µM; in [9], 0.0144 µM; in assay [10], 0.103 µM. Besides, the TGI in [1] was > 50 µM; in [2] it was 0.58 µM; in [3], 1.09 µM; in [4], > 50 µM; in assay [6], 0.032 µM; in assay [8], > 16.8 µM. In assay [10], the TGI worked out at 0.284 µM.
As to `COc1ccc2c(c1)N(CCO)C1=C(C(=O)OC1)C2c1cccc(Br)c1` (centres undefined), the GI50 in assay [1] is 0.0913 µM; in assay [2] it was 0.0532 µM; in assay [3], 0.0397 µM; in assay [4] it was 0.046 µM; in assay [5] it was 0.05 µM; in [6], 0.0612 µM. Besides, the GI50 was 0.217 µM in [7], 0.0618 µM in [8], 0.184 µM in assay [9] and 0.0407 µM in assay [10]. Also, the TGI is 19 µM in assay [1]; > 67.6 µM in [2]; 0.223 µM in assay [3]; > 100 µM in assay [4]; 2.88 µM in [5]; 0.597 µM in [6]. Besides, the TGI is > 100 µM in assay [7], 54.4 µM in [8], 28.4 µM in assay [9] and 0.585 µM in assay [10].
On to `COc1ccc(OC)c(/C=C/c2cnnc3ccccc23)c1`, for which the TGI in assay [1] was > 10 µM; in assay [2] it was > 10 µM; in [3] it was 7.81 µM; in [4] it was > 10 µM; in [5] it was > 10 µM; in assay [6], > 10 µM. In addition, the TGI in [7], in [8], in [9] and in [10] was > 10 µM each time.
Take `CCNCCNc1cc(C2CCCC2)c(C#N)c2nc3ccccc3n12`: the GI50 in assay [1] was 3.26 µM; in assay [2], 2.49 µM; in assay [3] it was 4.55 µM; in assay [4] it was 2.82 µM; in [5], 1.95 µM; in assay [6], 2.06 µM. Moreover, the GI50 is 2.46 µM in [7], 6.1 µM in assay [8], 2.69 µM in [9] and 1.75 µM in assay [10]. Moreover, the TGI was 12.5 µM in [1]; 5.81 µM in assay [2]; 19 µM in assay [3]; 13.2 µM in assay [4]; 3.89 µM in [5]; 4.08 µM in assay [6]. For the same compound, the TGI worked out at 7.75 µM in [7], 19.3 µM in assay [8], 7.35 µM in assay [9] and 3.31 µM in assay [10].
Consider `O=C(Nc1cc(Cl)cc(Cl)c1)c1ccc(NC2=C(Cl)C(=O)N(Cc3ccccc3)C2=O)cc1`, for which the GI50 is 22 µM in assay [1]; 2.31 µM in assay [2]; 11.3 µM in assay [3]; 0.743 µM in [5]; 9.37 µM in assay [6]; 3.17 µM in assay [7]. The GI50 in assay [8] is 3.29 µM; in [9] it was 1.74 µM; in assay [10] it was 1.57 µM. In addition, the TGI came out at 73.7 µM in assay [1]; 6.93 µM in assay [2]; 26.7 µM in assay [3]; 3.76 µM in [5]; 24.2 µM in assay [6]; 12.1 µM in assay [7]. The TGI stood at 12.7 µM in [8], 4.2 µM in assay [9] and 3.19 µM in [10].
As for `O=C(Nc1cccc2ccccc12)c1cc2ccccc2cc1O`, the GI50 in [1] was 2.5 µM; in [2], 1.95 µM; in [3], 2.17 µM; in [4], 2.91 µM; in assay [5], 2.85 µM; in assay [6], 3.14 µM. In addition, the GI50 in [7] was 2.91 µM; in assay [8] it was 2 µM; in assay [9] it was 1.41 µM; in [10] it was 1.57 µM. For the same compound, the TGI was determined as 7.55 µM in assay [1]; 23.4 µM in assay [2]; 8.07 µM in [3]; 15 µM in assay [4]; 12 µM in [5]; 20.4 µM in assay [6]. In addition, the TGI in [7] was determined as 12.1 µM; in assay [8] it was 8.48 µM; in assay [9], 9.22 µM; in assay [10], 3.69 µM.
For the compound `COc1ccc(-c2oncc2-c2cc(OC)c3c(c2)OCO3)cc1`, the GI50 is 3.76 µM in [1]; 0.441 µM in [2]; 1.63 µM in assay [3]; 1.18 µM in assay [4]; 3.28 µM in [5]; 2.33 µM in assay [6]. In addition, the GI50 in assay [7] is 2.2 µM; in assay [8] it was 2.99 µM; in [9], 3.93 µM; in [10], 2.84 µM. Moreover, the TGI in assay [1] is > 40.4 µM; in assay [2], > 100 µM; in assay [3], 24.4 µM; in assay [4] it was > 100 µM; in assay [5], > 58.3 µM; in [6], > 69.6 µM. For the same compound, the TGI is > 43.6 µM in [7], > 66.1 µM in [8], > 39.5 µM in [9] and 14.1 µM in assay [10].
On to `CNC(=S)N/N=C(/C)CCC/C(C)=N/NC(=S)NC`, for which the TGI in [1], in [2], in [3], in [4], in assay [5] and in assay [6] was > 100 µM throughout. For the same compound, the TGI in [8], in assay [9] and in assay [10] was > 100 µM in each case.
With `O=C(/C=C/c1ccc2c(c1)OCO2)c1ccccc(=O)c1O`, the TGI in assay [2] is > 100 µM; in [3], 14.2 µM; in assay [4], > 100 µM; in assay [5], > 100 µM; in assay [7], 3.93 µM; in assay [8] it was > 100 µM. The TGI in assay [9] was > 100 µM; in [10], 23 µM.
`O=CNc1ccc2c(c1)Cc1cc([N+](=O)[O-])ccc1-2`: the GI50 in assay [1] was 4.39 µM; in assay [3], 2.77 µM; in assay [4], 2.05 µM; in assay [5], 1.38 µM; in [6] it was 0.291 µM; in [7], 1.31 µM. Moreover, the GI50 in [8] is 4.87 µM; in assay [9], > 100 µM; in assay [10] it was 1.53 µM. Moreover, the TGI was 27.4 µM in assay [1]; > 100 µM in assay [3]; > 100 µM in assay [4]; > 100 µM in assay [5]; > 100 µM in assay [6]; > 100 µM in assay [7]. Also, the TGI in assay [8], in assay [9] and in assay [10] was > 100 µM throughout.
As for `Nc1nn(C(=O)Nc2ccc(Cc3ccccc3)cc2)c2ccccc12`, the GI50 is 36.9 µM in assay [1]; 1.2 µM in assay [2]; 7.87 µM in [3]; 3.62 µM in [4]; 7.03 µM in assay [5]; 0.772 µM in assay [6]. The GI50 in assay [8] is 13.5 µM; in [9] it was 1.86 µM; in assay [10] it was 2.22 µM. Moreover, the TGI in assay [1] is > 100 µM; in assay [2], 33.8 µM; in assay [3] it was > 100 µM; in assay [4] it was 41.5 µM; in assay [5], > 100 µM; in assay [6] it was > 100 µM. In addition, the TGI is 51.1 µM in assay [8], 25.8 µM in [9] and 8.64 µM in assay [10].
